Measurements reported in patent publication US12077503B2, “Substituted cyclic amides and their use as herbicides” (FMC CORPORATION, priority 2015, dated 2024).

How the values were obtained:
Assay type in all cases: in vivo
[1] = tested on: sedge, umbrella (small-flower umbrella sedge, Cyperus difformis); assay: Test B flooded paddy test; conditions: Flood, 250 g ai/ha
Method in brief: (§1)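 Plants at 2-leaf stage flooded to 3 cm above soil, with compounds applied directly to paddy water and that depth maintained. Plants kept in greenhouse 13–15 d. Visual rating versus controls on a 0 (no effect) to 100 (complete control) scale.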

[2] = tested on: ducksalad (Heteranthera limosa); assay: Test B flooded paddy test; conditions: Flood, 250 g ai/ha
Method in brief: as §1

[3] = tested on: rice (Oryra sativa); assay: Test B flooded paddy test; conditions: Flood, 250 g ai/ha
Method in brief: as §1

[4] = tested on: barnyardgrass (Echinochloa crus-galli); assay: Test B flooded paddy test; conditions: Flood, 250 g ai/ha
Method in brief: as §1

[5] = tested on: ragweed (common ragweed, Ambrosia elatior); assay: Test A preemergence
Method in brief: (§2)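 In a loam soil and sand blend, planted seeds got a preemergence directed soil spray, and young plants at the one- to two-leaf stage, 2–10 cm high, got a postemergence application; ~10 d greenhouse hold; injury rated visually, 0 = none, 100 = complete control.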

[6] = tested on: Kochia (Kochia scoparia); assay: Test A preemergence
Method in brief: as §2

[7] = tested on: ryegrass, Italian (Italian ryegrass, Lolium multiflorum); assay: Test A preemergence
Method in brief: as §2

[8] = tested on: barnyardgrass (Echinochloa crus-galli); assay: Test A preemergence
Method in brief: as §2

[9] = tested on: giant foxtail (Setaria faberii); assay: Test A preemergence
Method in brief: as §2

[10] = tested on: pigweed (Amaranthus retroflexus); assay: Test A preemergence
[11] = tested on: corn (Zea mays); assay: Test A postemergence
Method in brief: as §2

[12] = tested on: blackgrass (Alopecurus myosuroides); assay: Test A postemergence
Method in brief: as §2

[13] = tested on: ragweed (common ragweed, Ambrosia elatior); assay: Test A postemergence
Method in brief: as §2

[14] = tested on: Kochia (Kochia scoparia); assay: Test A postemergence
Method in brief: as §2

[15] = tested on: Galium (catchweed bedstraw, Galium aparine); assay: Test A postemergence
Method in brief: as §2

[16] = tested on: wheat (Triticum aestivum); assay: Test A postemergence
Method in brief: as §2

[17] = tested on: ryegrass, Italian (Italian ryegrass, Lolium multiflorum); assay: Test A postemergence
Method in brief: as §2

[18] = tested on: barnyardgrass (Echinochloa crus-galli); assay: Test A postemergence
Method in brief: as §2

[19] = tested on: giant foxtail (Setaria faberii); assay: Test A postemergence
Method in brief: as §2

[20] = tested on: pigweed (Amaranthus retroflexus); assay: Test A postemergence
Method in brief: as §2

[21] = tested on: sedge, umbrella (small-flower umbrella sedge, Cyperus difformis); assay: Test C flooded paddy test; conditions: Flood; for Plant response rating (scale of 0 to 100), Sedge, Umbrella: 0 is no effect, 100 is complete control
Excerpt: (§3) Plant species in the flooded paddy test consisted of rice (Oryza sativa), sedge, umbrella (small-flower umbrella sedge, Cyperus difformis), ducksalad (Heteranthera limosa), and barnyardgrass (Echinochloa crus-galli) grown to the 2-leaf stage for testing. At time of treatment, test pots were flooded to 3 cm above the soil surface, treated by application of test compounds directly to the paddy water, and then maintained at that water depth for the duration of the test. Treated plants and controls were maintained in a greenhouse for 13 to 15 d, after which time all species were compared to controls and visually evaluated. Plant response ratings, summarized in Table C, are based on a scale of 0 to 100 where 0 is no effect and 100 is complete control. A dash (-) response means no test result.

[22] = tested on: ducksalad (Heteranthera limosa); assay: Test C flooded paddy test; conditions: Flood; for Plant response rating (scale of 0 to 100), Ducksalad: 0 is no effect, 100 is complete control
Excerpt: as §3

[23] = tested on: barnyardgrass (Echinochloa crus-galli); assay: Test C flooded paddy test; conditions: Flood; for Plant response rating (scale of 0 to 100), Barnyardgrass: 0 is no effect, 100 is complete control
Excerpt: as §3

[24] = tested on: rice (Oryza sativa); assay: Test C flooded paddy test; conditions: Flood; for Plant response rating (scale of 0 to 100), Rice: 0 is no effect, 100 is complete control
Excerpt: as §3

[25] = 0 to 100 scale where 0 is no effect and 100 is complete control, 13 to 15 d
[26] = 125 g ai/ha, Preemergence, visual injury after approximately 10 d, 0 to 100 scale where 0 is no effect and 100 is complete control
[27] = 500 g ai/ha, preemergence, 0 to 100 scale, 0 = no effect, 100 = complete control
[28] = 125 g ai/ha, postemergence, visual rating after approx. 10 d, 0 to 100 scale (0 no effect, 100 complete control)
[29] = 500 g ai/ha, postemergence, visual injury, 0 to 100 scale (0 no effect, 100 complete control), approx. 10 d
[30] = 31 g ai/ha, scale 0 to 100 (0 no effect, 100 complete control), 13 to 15 d
[31] = visually evaluated after 13 to 15 d
[32] = 500 g ai/ha, preemergence, 0 to 100 scale (0 no effect, 100 complete control)
[33] = Preemergence, 125 g ai/ha, 0 to 100 scale (0 no effect, 100 complete control)
[34] = Postemergence, 125 g ai/ha, visual injury after approx. 10 d, 0 to 100 scale, 0 no effect, 100 complete control
[35] = Postemergence, 500 g ai/ha, visual injury, 0 to 100 scale (0 no effect, 100 complete control), approx. 10 d

## CC(C)Oc1cccc(C2CN(C)C(=O)C2C(=O)Nc2ccccc2F)c1 (stereo not shown) [Compound 650]
[1]; [25]
  Plant response rating, Sedge, Umbrella: 0
[2]; [25]
  Plant response rating, Ducksalad: 100
[3]; [25]
  Plant response rating, Rice: 0
[4]; [25]
  Plant response rating, Barnyardgrass: 80
[5]; [26]
  Plant response rating, Ragweed: 0
[5]; [27]
  Plant response rating, Ragweed: 80
[6]; [26]
  Plant response rating, Kochia: 30
[6]; [27]
  Plant response rating, Kochia: 70
[7]; [26]
  Plant response rating, Ryegrass, Italian: 40
[7]; [27]
  Plant response rating, Ryegrass, Italian: 90
[8]; [26]
  Plant response rating, Barnyardgrass: 100
[8]; [27]
  Plant response rating, Barnyardgrass: 100
[9]; [26]
  Plant response rating, Foxtail, Giant: 100
[9]; [27]
  Plant response rating, Foxtail, Giant: 100
[10]; [26]
  Plant response rating, Pigweed: 50
[10]; [27]
  Plant response rating, Pigweed: 90
[11]; [28]
  Plant response rating, Corn: 40
[11]; [29]
  Plant response rating, Corn: 90
[12]; [28]
  Plant response rating, Blackgrass: 50
[12]; [29]
  Plant response rating, Blackgrass: 50
[13]; [28]
  Plant response rating, Ragweed: 0
[13]; [29]
  Plant response rating, Ragweed: 30
[14]; [28]
  Plant response rating, Kochia: 0
[14]; [29]
  Plant response rating, Kochia: 40
[15]; [28]
  Plant response rating, Galium: 50
[15]; [29]
  Plant response rating, Galium: 70
[16]; [28]
  Plant response rating, Wheat: 30
[16]; [29]
  Plant response rating, Wheat: 70
[17]; [28]
  Plant response rating, Ryegrass, Italian: 60
[17]; [29]
  Plant response rating, Ryegrass, Italian: 70
[18]; [28]
  Plant response rating, Barnyardgrass: 90
[18]; [29]
  Plant response rating, Barnyardgrass: 90
[19]; [28]
  Plant response rating, Foxtail, Giant: 90
[19]; [29]
  Plant response rating, Foxtail, Giant: 90
[20]; [28]
  Plant response rating, Pigweed: 0
[20]; [29]
  Plant response rating, Pigweed: 0
[21]; [30]
  Plant response rating, Sedge, Umbrella: 0
[21]; 62 g ai/ha
  Plant response rating (scale of 0 to 100), Sedge, Umbrella: 0
[21]; 125 g ai/ha
  Plant response rating (scale of 0 to 100), Sedge, Umbrella: 0
[21]; 250 g ai/ha
  Plant response rating (scale of 0 to 100), Sedge, Umbrella: 0
[22]; [30]
  Plant response rating, Ducksalad: 60
[22]; 62 g ai/ha
  Plant response rating (scale of 0 to 100), Ducksalad: 70
[22]; 125 g ai/ha
  Plant response rating (scale of 0 to 100), Ducksalad: 90
[22]; 250 g ai/ha
  Plant response rating (scale of 0 to 100), Ducksalad: 95
[23]; [30]
  Plant response rating, Barnyardgrass: 20
[23]; 62 g ai/ha
  Plant response rating (scale of 0 to 100), Barnyardgrass: 20
[23]; 125 g ai/ha
  Plant response rating (scale of 0 to 100), Barnyardgrass: 60
[23]; 250 g ai/ha
  Plant response rating (scale of 0 to 100), Barnyardgrass: 75
[24]; [30]
  Plant response rating, Rice: 0
[24]; 62 g ai/ha
  Plant response rating (scale of 0 to 100), Rice: 0
[24]; 125 g ai/ha
  Plant response rating (scale of 0 to 100), Rice: 0
[24]; 250 g ai/ha
  Plant response rating (scale of 0 to 100), Rice: 0

## O=C(Nc1cccc(F)c1F)C1C(=S)NCC1c1ccc(Cl)cc1 (stereo not shown) [Compound 1387]
[1]; [31]
  Plant response rating, Sedge, Umbrella (0 to 100 scale where 0 is no effect and 100 is complete control): 0
[2]; [31]
  Plant response rating, Ducksalad (0 to 100 scale where 0 is no effect and 100 is complete control): 0
[3]; [31]
  Plant response rating, Rice (0 to 100 scale where 0 is no effect and 100 is complete control): 0
[4]; [31]
  Plant response rating, Barnyardgrass (0 to 100 scale where 0 is no effect and 100 is complete control): 0
[5]; [32]
  Plant response rating, Ragweed: 0
[5]; [33]
  Plant response rating, Ragweed: 0
[6]; [32]
  Plant response rating, Kochia: 60
[6]; [33]
  Plant response rating, Kochia: 30
[7]; [32]
  Plant response rating, Ryegrass, Italian: 0
[7]; [33]
  Plant response rating, Ryegrass, Italian: 0
[8]; [32]
  Plant response rating, Barnyardgrass: 90
[8]; [33]
  Plant response rating, Barnyardgrass: 50
[9]; [32]
  Plant response rating, Foxtail, Giant: 90
[9]; [33]
  Plant response rating, Foxtail, Giant: 80
[10]; [32]
  Plant response rating, Pigweed: 60
[10]; [33]
  Plant response rating, Pigweed: 0
[11]; [34]
  Plant response rating, Corn: 0
[11]; [35]
  Plant response rating, Corn: 10
[12]; [34]
  Plant response rating, Blackgrass: 0
[12]; [35]
  Plant response rating, Blackgrass: 40
[13]; [34]
  Plant response rating, Ragweed: 0
[13]; [35]
  Plant response rating, Ragweed: 30
[14]; [34]
  Plant response rating, Kochia: 0
[14]; [35]
  Plant response rating, Kochia: 50
[15]; [34]
  Plant response rating, Galium: 30
[15]; [35]
  Plant response rating, Galium: 50
[16]; [34]
  Plant response rating, Wheat: 0
[16]; [35]
  Plant response rating, Wheat: 0
[17]; [34]
  Plant response rating, Ryegrass, Italian: 0
[17]; [35]
  Plant response rating, Ryegrass, Italian: 40
[18]; [34]
  Plant response rating, Barnyardgrass: 60
[18]; [35]
  Plant response rating, Barnyardgrass: 80
[19]; [34]
  Plant response rating, Foxtail, Giant: 60
[19]; [35]
  Plant response rating, Foxtail, Giant: 80
[20]; [34]
  Plant response rating, Pigweed: 0
[20]; [35]
  Plant response rating, Pigweed: 60
